Results published in ChEMBL document CHEMBL5465560, “Selectivity Literature for EUbOPEN Chemogenomic Library” (2024).

Assays:
[1] = test system: Tyrosine-protein kinase ABL1 (Homo sapiens), P00519 [F317L]; test: Selectivity interaction (KinomeScan (DiscoverX)) EUB0001079a ABL1; details: at 1 µM
[2] = test system: T1, Receptor-type tyrosine-protein kinase FLT3 (Homo sapiens), P36888 [R834Q]; details: at 10 µM
T1 sequence (whole entry): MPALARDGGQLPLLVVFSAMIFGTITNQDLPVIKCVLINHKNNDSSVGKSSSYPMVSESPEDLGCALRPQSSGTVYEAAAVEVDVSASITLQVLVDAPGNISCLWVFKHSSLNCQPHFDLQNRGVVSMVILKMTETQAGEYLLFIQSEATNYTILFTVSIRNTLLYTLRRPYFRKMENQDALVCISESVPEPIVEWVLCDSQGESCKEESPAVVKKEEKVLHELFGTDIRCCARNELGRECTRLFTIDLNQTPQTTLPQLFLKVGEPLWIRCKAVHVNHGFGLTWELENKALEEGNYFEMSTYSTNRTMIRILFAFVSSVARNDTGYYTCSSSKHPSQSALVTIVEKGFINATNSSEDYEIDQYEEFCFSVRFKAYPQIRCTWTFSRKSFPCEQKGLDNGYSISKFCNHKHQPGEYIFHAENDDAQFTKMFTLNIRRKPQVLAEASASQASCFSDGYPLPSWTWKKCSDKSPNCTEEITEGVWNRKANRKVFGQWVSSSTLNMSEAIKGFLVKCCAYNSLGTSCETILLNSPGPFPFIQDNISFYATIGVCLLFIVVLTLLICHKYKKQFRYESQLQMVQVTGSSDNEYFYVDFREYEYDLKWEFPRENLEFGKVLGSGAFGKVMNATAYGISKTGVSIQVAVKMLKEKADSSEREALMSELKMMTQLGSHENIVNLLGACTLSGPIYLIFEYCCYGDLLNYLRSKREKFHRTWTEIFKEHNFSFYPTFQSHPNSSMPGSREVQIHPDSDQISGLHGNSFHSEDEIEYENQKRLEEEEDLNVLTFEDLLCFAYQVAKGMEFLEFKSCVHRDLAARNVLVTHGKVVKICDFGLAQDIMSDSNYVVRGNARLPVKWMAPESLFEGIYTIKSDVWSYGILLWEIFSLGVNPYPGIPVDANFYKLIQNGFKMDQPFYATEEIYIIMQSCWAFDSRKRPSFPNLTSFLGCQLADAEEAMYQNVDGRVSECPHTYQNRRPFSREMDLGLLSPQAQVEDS

[3] = test system: Mast/stem cell growth factor receptor Kit (Homo sapiens), P10721 [A829P]; details: at 10 µM
Sequence of Mast/stem cell growth factor receptor Kit (Homo sapiens), P10721 [A829P] (P10721 whole entry A829P): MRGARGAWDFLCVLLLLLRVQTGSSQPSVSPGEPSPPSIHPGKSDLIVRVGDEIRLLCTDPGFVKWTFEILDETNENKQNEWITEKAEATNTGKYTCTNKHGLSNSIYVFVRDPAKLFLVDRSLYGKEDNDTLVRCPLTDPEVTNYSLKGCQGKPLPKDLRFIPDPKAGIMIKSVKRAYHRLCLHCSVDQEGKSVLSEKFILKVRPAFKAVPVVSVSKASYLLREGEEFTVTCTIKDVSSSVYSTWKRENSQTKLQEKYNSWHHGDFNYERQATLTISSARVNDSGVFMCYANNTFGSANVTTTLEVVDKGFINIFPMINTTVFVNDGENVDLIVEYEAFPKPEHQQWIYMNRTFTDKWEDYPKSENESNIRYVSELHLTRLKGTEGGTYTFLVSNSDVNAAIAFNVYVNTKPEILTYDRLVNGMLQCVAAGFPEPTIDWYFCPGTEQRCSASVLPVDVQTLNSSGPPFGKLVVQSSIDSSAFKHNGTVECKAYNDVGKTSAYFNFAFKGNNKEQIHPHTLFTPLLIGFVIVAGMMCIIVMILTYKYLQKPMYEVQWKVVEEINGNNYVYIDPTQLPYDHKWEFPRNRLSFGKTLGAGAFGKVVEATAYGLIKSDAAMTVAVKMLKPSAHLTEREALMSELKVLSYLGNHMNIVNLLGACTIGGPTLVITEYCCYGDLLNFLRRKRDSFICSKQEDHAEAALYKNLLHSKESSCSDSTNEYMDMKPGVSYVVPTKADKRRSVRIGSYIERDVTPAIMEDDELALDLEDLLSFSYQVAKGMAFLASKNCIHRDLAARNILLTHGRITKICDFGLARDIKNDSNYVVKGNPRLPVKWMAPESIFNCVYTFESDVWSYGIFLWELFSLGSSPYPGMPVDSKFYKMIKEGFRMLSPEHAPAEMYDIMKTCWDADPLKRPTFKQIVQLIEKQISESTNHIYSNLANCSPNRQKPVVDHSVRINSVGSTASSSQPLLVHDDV

[4] = biological target: Dual specificity protein kinase CLK2 (Homo sapiens, UniProt P49760); test: Selectivity interaction (Enzymatic assay) EUB0001550a CLK2
Sequence of Dual specificity protein kinase CLK2 (P49760 whole entry): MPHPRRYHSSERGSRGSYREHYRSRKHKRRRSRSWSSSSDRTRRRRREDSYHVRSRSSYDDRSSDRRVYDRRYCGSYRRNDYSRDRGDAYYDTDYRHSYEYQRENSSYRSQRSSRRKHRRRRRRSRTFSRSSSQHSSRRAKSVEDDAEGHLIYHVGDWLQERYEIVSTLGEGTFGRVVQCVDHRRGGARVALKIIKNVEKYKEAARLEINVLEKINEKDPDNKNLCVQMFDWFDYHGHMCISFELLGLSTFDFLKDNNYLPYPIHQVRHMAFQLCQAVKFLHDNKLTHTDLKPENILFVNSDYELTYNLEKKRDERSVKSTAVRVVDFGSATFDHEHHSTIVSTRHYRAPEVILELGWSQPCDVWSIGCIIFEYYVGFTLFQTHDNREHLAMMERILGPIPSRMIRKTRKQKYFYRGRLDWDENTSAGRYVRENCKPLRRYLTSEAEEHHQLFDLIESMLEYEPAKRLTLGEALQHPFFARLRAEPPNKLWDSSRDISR

[5] = biological target: Mitogen-activated protein kinase 9 (Homo sapiens, UniProt P45984); test: Selectivity interaction (Millipore kinase profiler) EUB0000124b MAPK9; details: at 10 µM
Sequence of Mitogen-activated protein kinase 9 (P45984 whole entry, looked up): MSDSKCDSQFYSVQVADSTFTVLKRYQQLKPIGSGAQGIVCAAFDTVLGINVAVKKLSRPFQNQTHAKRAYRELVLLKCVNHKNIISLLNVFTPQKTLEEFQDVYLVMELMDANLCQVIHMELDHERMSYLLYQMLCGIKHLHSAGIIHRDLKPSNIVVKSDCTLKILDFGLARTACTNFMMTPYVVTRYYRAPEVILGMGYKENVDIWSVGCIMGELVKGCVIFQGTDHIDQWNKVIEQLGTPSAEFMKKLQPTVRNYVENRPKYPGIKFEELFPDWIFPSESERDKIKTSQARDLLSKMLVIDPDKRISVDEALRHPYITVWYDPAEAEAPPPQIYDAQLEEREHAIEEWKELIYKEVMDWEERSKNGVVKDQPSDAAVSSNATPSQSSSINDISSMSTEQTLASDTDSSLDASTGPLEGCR

[6] = biological target: Serine/threonine-protein kinase 33 (Homo sapiens) (UniProt Q9BYT3); test: Selectivity interaction (KinomeScan (DiscoverX)) EUB0000618a STK33; details: at 10 µM
Sequence of Serine/threonine-protein kinase 33 (Homo sapiens) (Q9BYT3 whole entry, looked up): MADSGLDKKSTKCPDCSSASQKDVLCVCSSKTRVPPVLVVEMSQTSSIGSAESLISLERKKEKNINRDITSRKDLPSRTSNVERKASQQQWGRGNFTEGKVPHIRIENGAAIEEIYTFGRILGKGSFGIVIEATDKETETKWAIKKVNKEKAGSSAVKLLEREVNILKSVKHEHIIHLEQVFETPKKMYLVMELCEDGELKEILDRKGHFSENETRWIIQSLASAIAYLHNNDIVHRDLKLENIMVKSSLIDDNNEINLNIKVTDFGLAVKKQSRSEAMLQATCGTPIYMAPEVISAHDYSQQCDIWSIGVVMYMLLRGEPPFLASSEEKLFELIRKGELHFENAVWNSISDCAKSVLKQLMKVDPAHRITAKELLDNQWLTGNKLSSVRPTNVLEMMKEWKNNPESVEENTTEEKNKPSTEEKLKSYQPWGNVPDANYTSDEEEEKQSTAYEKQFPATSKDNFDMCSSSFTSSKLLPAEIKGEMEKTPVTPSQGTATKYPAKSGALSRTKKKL

[7] = biological target: T2, Calcium/calmodulin-dependent protein kinase type IV (Homo sapiens) (UniProt Q16566); details: at 10 µM
T2 sequence (whole entry): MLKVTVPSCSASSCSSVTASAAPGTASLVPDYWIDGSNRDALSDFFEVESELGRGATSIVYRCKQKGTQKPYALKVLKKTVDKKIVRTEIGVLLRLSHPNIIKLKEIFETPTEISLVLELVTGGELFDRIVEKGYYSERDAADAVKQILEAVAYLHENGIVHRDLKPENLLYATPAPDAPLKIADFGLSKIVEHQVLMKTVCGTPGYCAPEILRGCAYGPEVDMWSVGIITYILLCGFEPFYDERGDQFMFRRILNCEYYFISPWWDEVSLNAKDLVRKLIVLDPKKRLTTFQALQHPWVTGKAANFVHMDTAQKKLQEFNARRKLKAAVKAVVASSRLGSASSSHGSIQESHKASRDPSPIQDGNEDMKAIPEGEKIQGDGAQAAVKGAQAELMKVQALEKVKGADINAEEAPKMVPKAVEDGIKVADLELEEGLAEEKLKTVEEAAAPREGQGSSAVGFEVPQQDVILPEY

[8] = biological target: Receptor-interacting serine/threonine-protein kinase 2 (Homo sapiens, UniProt O43353); test: Selectivity interaction (KinomeScan (DiscoverX)) EUB0000092b RIPK2; details: at 10 µM
Sequence of Receptor-interacting serine/threonine-protein kinase 2 (O43353 whole entry): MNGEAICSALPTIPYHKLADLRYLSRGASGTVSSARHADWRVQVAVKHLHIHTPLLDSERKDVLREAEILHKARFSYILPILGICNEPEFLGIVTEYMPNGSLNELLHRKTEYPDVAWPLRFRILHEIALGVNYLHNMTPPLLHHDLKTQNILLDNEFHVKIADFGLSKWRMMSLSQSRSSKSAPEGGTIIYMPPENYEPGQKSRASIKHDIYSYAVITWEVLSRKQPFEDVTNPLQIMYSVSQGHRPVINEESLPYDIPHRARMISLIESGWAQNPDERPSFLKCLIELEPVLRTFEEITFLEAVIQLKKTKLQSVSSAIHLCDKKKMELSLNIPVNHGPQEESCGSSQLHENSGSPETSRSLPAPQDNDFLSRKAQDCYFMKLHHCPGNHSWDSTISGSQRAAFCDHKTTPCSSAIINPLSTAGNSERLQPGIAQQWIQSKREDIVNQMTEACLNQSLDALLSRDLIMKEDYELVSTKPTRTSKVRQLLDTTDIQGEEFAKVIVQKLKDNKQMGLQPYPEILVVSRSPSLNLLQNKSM

[9] = biological target: T3, Tyrosine-protein kinase ITK/TSK (Homo sapiens) (UniProt Q08881); test: Selectivity interaction (Ambit KINOMEscan and KiNATiv profiling in Jurkat cells) EUB0000090b ITK; type: cell-based; details: at 1 µM
T3 sequence (whole entry): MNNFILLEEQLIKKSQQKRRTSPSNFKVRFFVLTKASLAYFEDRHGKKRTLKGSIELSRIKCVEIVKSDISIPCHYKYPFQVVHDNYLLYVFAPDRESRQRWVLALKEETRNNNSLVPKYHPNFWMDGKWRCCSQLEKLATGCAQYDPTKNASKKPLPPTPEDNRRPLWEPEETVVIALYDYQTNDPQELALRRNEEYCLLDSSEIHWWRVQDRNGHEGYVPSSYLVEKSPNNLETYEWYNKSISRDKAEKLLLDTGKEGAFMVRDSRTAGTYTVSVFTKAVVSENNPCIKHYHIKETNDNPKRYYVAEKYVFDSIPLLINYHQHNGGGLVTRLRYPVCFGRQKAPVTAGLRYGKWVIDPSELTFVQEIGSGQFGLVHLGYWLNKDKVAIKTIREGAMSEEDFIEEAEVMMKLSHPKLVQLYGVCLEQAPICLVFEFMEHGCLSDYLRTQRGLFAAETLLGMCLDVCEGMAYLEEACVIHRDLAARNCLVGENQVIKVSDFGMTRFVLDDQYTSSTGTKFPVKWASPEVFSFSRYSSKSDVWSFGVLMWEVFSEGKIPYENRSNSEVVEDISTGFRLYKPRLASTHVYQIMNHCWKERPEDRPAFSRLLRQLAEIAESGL

Sequence of Tyrosine-protein kinase ABL1 (Homo sapiens), P00519 [F317L] (P00519 whole entry F317L): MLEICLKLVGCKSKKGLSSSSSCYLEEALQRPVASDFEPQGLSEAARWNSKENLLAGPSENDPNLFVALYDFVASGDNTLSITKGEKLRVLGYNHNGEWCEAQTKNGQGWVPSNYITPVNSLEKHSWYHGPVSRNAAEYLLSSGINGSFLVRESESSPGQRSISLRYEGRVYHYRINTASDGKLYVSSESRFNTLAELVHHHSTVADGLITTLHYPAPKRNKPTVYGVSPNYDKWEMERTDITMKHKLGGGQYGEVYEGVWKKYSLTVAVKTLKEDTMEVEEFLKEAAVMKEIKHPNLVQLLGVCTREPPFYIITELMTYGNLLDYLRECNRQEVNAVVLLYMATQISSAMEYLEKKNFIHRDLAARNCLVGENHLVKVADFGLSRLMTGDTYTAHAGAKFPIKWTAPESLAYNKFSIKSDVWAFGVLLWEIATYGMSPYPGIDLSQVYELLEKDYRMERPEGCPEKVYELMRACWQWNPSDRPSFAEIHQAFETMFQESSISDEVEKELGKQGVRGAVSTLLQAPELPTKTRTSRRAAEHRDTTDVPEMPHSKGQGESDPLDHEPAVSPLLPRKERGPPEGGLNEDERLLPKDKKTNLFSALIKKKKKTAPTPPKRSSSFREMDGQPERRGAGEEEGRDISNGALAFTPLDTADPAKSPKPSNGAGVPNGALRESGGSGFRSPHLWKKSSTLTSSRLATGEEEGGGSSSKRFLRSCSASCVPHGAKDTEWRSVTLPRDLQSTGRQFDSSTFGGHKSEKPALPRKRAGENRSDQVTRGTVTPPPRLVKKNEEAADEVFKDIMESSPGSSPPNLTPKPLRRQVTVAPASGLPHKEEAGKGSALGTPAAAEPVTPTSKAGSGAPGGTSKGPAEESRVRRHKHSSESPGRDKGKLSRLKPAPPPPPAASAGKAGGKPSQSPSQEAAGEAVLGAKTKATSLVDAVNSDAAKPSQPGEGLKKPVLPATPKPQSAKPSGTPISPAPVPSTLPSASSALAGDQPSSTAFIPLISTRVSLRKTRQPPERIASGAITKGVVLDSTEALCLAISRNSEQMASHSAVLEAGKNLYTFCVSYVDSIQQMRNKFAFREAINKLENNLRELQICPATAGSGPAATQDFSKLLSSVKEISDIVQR

Nc1cnc(N2CCc3cc(S(=O)(=O)Nc4c(F)cc(Cl)cc4F)cc(N4CCCC4=O)c32)nc1 [TP-020n]
% of control [1]: 78%

Cc1cc([C@@H](C)Nc2ccccc2C(=O)O)c2nc(N3CCOCC3)cc(=O)n2c1 [AZD-6482]
% of control [2]: 94%
% of control [3]: 100%

CN(C)CC#Cc1ccc2[nH]c3c(c2c1)-c1nc(N)ncc1CCC3
IC50 [4]: 290 nM

CC(=O)Nc1cccc(-n2c(=O)n(C3CC3)c(=O)c3c(Nc4ccc(I)cc4F)n(C)c(=O)c(C)c32)c1
% of control [5]: 97%

O[C@H]1CC[C@H](Nc2ncc3nc(Nc4c(F)cc(F)cc4F)n([C@H]4CCOC4)c3n2)CC1
% of control [6]: 100%

CCN(CC)CCCCNc1ncc2cc(-c3cc(OC)cc(OC)c3)c(NC(=O)NC(C)(C)C)nc2n1
% of control [7]: 100%

CCC(=O)N1CCN(c2ccc(-n3c(=O)ccc4cnc5ccc(-c6cnc7ccccc7c6)cc5c43)cc2C(F)(F)F)CC1
% of control [8]: 44%

CN(C)C/C=C/C(=O)Nc1ccc(C(=O)N2CCCC(Nc3ncc(Cl)c(-c4c[nH]c5ccccc45)n3)C2)cc1 (centres undefined)
% of control [9]: 91%
